Several values for one entry are separate records, joined by “and”; a condition that tells them apart may be missing. Equal entries are not always repeated.
Legend:
HEK293T cells [1] = experiment: Cytotoxicity: necrosis induction (red fluorescent dye for permeable plasma membranes); format: cell-based; settings: 1 µM, 24 h, necrotic cell count normalized to 0.1% DMSO, single replicates;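 further: compounds applied in DMEM high glucose with 0.1% FCS and 0.1% DMSO, necrotic HEK293T cells counted by red staining of cells whose plasma membranes had become permeable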
Procedure: Cells were incubated with the test compounds at the indicated concentrations solubilized with 0.1% DMSO for 24 h. […] Necrotic cells were detected with a red fluorescent dye that labels cells with permeable plasma membranes after 24 h treatment and the necrotic cell count was normalized to 0.1% DMSO treated cells (n = 4). e NR family selectivity profiling of NR3 CG compound candidates in uniform Gal4-hybrid reporter gene assays for selected NR representing the NR1, NR2, NR4 and NR5 families.
HEK293T cells (German Collection of Microorganisms and Cell Culture GmbH, DSMZ; #ACC305) were cultured in DMEM high glucose, supplemented with 10% fetal calf serum (FCS), sodium pyruvate (1 mM), penicillin (100 µ/mL) and streptomycin (100 µg/mL) at 37 °C and 5% (v/v) CO2, and seeded in pre-coated (10 µg/mL collagen G solution (Merck KgaA; #L7213) for 30 min at 37 °C) 96-well plates (2 × 10^5 cells per well). After 24 h, the cells were treated with the respective NR3 CG compound candidate at the recommended concentration, bexarotene (100 µM) or doxorubicin (30 µM) as positive controls in DMEM high glucose supplemented with 0.1% FCS, penicillin (100 µ/mL), streptomycin (100 µg/mL) and 0.1% DMSO, or 0.1% DMSO alone as an untreated control. Each sample was prepared in at least four biologically independent replicates. […] Before drug administration, after the first medium exchange, 24 h after drug administration, and after fluorescence imaging cell confluence was assessed using the Tecan Spark Cyto, to account for changes in cell confluence due to drug administration and cell handling. Compound effects on cell confluence, apoptosis, metabolic activity and necrosis were normalized to the vehicle control of each biological replicate individually.

ABL1 = biological target: T1, ABL1 (Homo sapiens, UniProt P00519); experiment: Liability panel screening by DSF: ABL1; format: binding; settings: DSF, 20 µM, n=2; read-out: Mean ΔTM ABL1
T1 construct: made in house
T1 sequence (P00519 whole entry, species assumed): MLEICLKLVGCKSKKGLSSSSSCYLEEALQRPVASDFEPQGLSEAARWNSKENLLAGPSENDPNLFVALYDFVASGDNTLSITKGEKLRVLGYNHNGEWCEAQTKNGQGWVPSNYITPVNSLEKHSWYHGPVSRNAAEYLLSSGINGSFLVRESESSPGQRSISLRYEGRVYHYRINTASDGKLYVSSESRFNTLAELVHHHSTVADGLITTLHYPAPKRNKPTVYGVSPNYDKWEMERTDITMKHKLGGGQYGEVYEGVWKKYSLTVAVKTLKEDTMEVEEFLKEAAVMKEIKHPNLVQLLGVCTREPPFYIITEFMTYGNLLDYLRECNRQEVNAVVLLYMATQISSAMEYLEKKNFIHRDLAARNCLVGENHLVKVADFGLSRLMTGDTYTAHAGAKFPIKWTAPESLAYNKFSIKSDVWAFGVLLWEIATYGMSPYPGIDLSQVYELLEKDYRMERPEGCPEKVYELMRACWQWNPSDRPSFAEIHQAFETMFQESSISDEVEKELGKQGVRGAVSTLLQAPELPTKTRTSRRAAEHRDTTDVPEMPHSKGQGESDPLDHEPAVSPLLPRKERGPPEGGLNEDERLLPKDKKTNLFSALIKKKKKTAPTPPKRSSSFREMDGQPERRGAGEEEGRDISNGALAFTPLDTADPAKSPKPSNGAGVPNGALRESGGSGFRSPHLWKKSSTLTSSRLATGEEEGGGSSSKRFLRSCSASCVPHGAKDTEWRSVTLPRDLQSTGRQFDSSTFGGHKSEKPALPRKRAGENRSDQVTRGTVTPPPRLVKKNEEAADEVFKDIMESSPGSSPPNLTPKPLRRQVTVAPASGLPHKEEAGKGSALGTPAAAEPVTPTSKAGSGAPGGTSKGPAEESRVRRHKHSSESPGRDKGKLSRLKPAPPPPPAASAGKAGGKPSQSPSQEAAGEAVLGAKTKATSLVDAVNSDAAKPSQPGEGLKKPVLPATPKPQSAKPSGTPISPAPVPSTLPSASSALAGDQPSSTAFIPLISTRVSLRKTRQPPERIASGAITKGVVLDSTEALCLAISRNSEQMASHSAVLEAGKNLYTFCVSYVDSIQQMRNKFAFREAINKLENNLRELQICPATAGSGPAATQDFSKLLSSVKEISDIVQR
Outline: (§1)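 Thermal shift: in-house recombinant protein at 2 µM in 10 mM HEPES pH 7.5 with 500 mM NaCl, SYPRO Orange 1:1000, heated at 3 °C/min to 85 °C in technical duplicates. Tm is the Boltzmann inflection point, reported as ∆Tm in K.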

AURKA = biological target: T2, AURKA (Homo sapiens, UniProt O14965); experiment: Liability panel screening by DSF: AURKA; format: binding; settings: DSF, 20 µM, n=2; read-out: Mean ΔTM AURKA
T2 construct: made in house
T2 sequence (O14965 1-403): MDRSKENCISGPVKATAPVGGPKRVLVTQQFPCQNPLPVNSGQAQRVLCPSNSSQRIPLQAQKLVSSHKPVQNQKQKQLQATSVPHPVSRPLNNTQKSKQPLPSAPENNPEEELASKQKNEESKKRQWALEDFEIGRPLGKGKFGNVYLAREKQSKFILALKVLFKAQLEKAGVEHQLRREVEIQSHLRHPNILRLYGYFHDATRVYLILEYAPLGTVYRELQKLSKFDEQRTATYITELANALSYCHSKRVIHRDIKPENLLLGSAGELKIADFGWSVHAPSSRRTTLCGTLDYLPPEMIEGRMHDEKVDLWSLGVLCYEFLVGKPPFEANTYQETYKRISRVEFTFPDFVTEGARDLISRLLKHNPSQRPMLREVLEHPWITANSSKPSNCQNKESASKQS
Outline: as §1

CDK2 = biological target: T3, CDK2 (Homo sapiens, UniProt P24941); experiment: Liability panel screening by DSF: CDK2; format: binding; settings: DSF, 20 µM, n=2; read-out: Mean ΔTM CDK2
T3 construct: made in house
Outline: as §1

FGFR3 = biological target: T4, FGFR3 (Homo sapiens, UniProt P22607); experiment: Liability panel screening by DSF: FGFR3; format: binding; settings: DSF, 20 µM, n=2; read-out: Mean ΔTM FGFR3
T4 construct: made in house
T4 sequence (P22607 23-806, species assumed): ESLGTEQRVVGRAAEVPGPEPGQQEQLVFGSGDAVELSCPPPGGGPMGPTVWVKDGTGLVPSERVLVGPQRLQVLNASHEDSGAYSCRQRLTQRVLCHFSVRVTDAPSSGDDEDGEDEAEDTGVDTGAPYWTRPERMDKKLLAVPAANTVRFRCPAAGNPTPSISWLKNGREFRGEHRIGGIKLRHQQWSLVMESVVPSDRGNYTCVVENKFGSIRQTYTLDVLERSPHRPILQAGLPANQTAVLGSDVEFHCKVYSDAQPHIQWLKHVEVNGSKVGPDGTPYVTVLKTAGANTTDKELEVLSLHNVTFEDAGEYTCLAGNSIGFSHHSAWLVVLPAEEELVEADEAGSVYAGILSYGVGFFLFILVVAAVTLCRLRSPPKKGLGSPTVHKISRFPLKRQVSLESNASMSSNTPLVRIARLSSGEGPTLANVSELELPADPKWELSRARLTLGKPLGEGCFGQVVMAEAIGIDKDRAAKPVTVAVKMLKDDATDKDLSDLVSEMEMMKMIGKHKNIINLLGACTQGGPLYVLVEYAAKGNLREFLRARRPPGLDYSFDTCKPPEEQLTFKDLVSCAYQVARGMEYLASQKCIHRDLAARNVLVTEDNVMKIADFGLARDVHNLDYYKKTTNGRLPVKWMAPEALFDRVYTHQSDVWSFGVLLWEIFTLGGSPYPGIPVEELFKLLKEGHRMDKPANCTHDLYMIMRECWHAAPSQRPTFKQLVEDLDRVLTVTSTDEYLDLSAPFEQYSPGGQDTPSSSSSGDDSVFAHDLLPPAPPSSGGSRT
Outline: as §1

GSK3B = biological target: T5, GSK3B (Homo sapiens, UniProt P49841); experiment: Liability panel screening by DSF: GSK3B; format: binding; settings: DSF, 20 µM, n=2; read-out: Mean ΔTM GSK3B
T5 construct: made in house
T5 sequence (P49841 whole entry, species assumed): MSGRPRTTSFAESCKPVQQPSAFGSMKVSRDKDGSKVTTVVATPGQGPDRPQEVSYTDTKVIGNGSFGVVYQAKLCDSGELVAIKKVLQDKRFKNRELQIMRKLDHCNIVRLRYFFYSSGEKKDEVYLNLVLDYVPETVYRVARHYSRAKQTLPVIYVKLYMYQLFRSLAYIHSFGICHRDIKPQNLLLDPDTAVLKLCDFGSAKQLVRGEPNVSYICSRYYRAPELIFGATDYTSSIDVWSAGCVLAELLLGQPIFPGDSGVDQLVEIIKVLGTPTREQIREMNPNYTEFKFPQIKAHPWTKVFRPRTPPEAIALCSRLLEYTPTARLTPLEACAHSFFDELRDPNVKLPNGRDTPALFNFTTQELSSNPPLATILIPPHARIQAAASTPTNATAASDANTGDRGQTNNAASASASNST

BRD4 = biological target: T6, BRD4 (Homo sapiens, UniProt O60885); experiment: Liability panel screening by DSF: BRD4; format: binding; settings: DSF, 20 µM, n=2; read-out: Mean ΔTM BRD4
T6 construct: This panel comprised ten highly ligandable kinases and bromodomains; made in house
Outline: as §1

BRPF1 = biological target: T7, BRPF1 (Homo sapiens, UniProt P55201); experiment: Liability panel screening by DSF: BRPF1; format: binding; settings: read-out: Mean ΔTM BRPF1
T7 construct: This panel comprised ten highly ligandable kinases and bromodomains; made in house
T7 sequence (P55201 628-732 limits assumed): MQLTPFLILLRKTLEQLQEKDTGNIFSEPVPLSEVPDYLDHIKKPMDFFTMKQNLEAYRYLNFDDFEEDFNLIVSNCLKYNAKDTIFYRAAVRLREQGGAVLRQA
Outline: as §1

CSNK1D = biological target: T8, CSNK1D (Homo sapiens, UniProt P48730); experiment: Liability panel screening by DSF: CSNK1D; format: binding; settings: DSF, 20 µM, n=2; read-out: Mean ΔTM CSNK1D
T8 construct: made in house
T8 sequence (P48730 whole entry, species assumed): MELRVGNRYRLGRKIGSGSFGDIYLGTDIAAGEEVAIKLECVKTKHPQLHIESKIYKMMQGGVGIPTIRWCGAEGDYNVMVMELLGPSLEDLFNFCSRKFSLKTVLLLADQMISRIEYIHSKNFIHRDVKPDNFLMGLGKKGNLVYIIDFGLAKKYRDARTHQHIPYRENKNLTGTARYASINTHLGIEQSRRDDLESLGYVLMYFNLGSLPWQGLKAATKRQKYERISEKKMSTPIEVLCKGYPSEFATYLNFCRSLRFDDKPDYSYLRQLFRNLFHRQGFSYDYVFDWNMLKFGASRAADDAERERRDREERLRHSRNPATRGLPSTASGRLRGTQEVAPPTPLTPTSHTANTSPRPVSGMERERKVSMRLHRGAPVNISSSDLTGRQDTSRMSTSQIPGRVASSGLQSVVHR
Outline: as §1

MAPK1 = biological target: T9, MAPK1 (Homo sapiens, UniProt P28482); experiment: Liability panel screening by DSF: MAPK1; format: binding; settings: DSF, 20 µM, n=2; read-out: Mean ΔTM MAPK1
T9 construct: made in house
T9 sequence (P28482 whole entry, species assumed): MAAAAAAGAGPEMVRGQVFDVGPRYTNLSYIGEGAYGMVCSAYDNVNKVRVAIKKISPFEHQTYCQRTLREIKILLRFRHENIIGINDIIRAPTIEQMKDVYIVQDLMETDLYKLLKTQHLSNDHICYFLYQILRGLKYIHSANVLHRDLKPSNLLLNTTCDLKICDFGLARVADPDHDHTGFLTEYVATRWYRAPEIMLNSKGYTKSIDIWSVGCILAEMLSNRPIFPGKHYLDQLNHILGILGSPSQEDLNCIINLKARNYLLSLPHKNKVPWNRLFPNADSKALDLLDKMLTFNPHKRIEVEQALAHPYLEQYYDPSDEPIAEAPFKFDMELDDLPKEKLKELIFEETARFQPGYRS
Outline: as §1

TRIM24 = biological target: T10, TRIM24 (Homo sapiens, UniProt O15164); experiment: Liability panel screening by DSF: TRIM24; format: binding; settings: DSF, 20 µM, n=2; read-out: Mean ΔTM TRIM24
T10 construct: This panel comprised ten highly ligandable kinases and bromodomains; made in house
T10 sequence (O15164 899-1004 limits assumed): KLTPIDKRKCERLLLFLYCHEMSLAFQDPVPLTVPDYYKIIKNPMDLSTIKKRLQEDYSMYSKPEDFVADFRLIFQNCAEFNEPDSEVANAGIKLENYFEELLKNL
Outline: as §1

[2] = tested on: NF-κB activity in HEK293 NF-κB reporter cells; experiment: NF-kB activity assay (GFP reporter, ionomycin/PMA); format: cell-based; settings: n=3
Outline: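 Reporter readout: GFP-expressing cells normalized to confluence, imaged every 90 min across 24 h after ionomycin (100 ng/mL)/PMA (10 ng/mL) stimulation of HEK293 cells pre-treated 4 h with compound (0.1% DMSO); triplicate independent experiments.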

[3] = tested on: ATF6 activity in Hela ATF6 reporter cells; experiment: Endoplasmic reticulum stress assay (ATF6 Renilla luciferase reporter, tunicamycin); format: cell-based; settings: Homo sapiens, HeLa, 1 µM, single replicates n=1 to n=5; read-out: ER stress [rel. ATF6 activity]
Outline: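 ER stress was induced by 100 ng/mL tunicamycin added 4 h after compound (0.1% DMSO) to HeLa ATF6 reporter cells. After 18 h more, Renilla luciferase signal was read and expressed relative to DMSO control, n=5 biological replicates.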

NR3C2 (MR) = settings: (lit.); ref Supplementary Table 1; read-out: Potency [nM] EC50, NR3C2 (MR); cited from earlier work
HEK293T cells [4] = experiment: Cytotoxicity: metabolic activity (WST-8 / CCK-8 assay); settings: 1 µM; HEK293T, 24 h; WST-8; normalized to 0.1% DMSO; single replicates
HEK293T cells [5] = experiment: Cytotoxicity: growth-rate (change in confluence over 24 h); settings: 1 µM, normalized to 0.1% DMSO control, single replicates (n=1...)
HEK293T cells [6] = experiment: Cytotoxicity: apoptosis induction (caspase-3/7 DEVD fluorogenic DNA dye); settings: 1 µM; HEK293T, 24 h; apoptotic cell count normalized to 0.1% DMSO; single replicates

C[C@]12CCC(=O)C=C1CC[C@@H]1[C@@H]2[C@@H](O)C[C@]2(C=O)[C@@H](C(=O)CO)CC[C@@H]12 [Aldosterone]
Necrosis induction [NI] (HEK293T cells [1]): 0.75 and 0.67 and 0.68 and 0.72 | ΔTm at 20 µM (ABL1): -0.26 °C | ΔTm at 20 µM (AURKA): 0.1 °C | ΔTm at 20 µM (CDK2): -0.06 °C | ΔTm at 20 µM (FGFR3): -0.16 °C | ΔTm at 20 µM (GSK3B): -0.23 °C | ΔTm at 20 µM (BRD4): 0.17 °C | ΔTm at 20 µM (BRPF1): -1.02 °C | ΔTm at 20 µM (CSNK1D): -2.48e-05 °C | ΔTm at 20 µM (MAPK1): 0.17 °C | ΔTm at 20 µM (TRIM24): -0.91 °C | Mean NFκB response ([2]; 1 µM, 1,5 h): 2799.98 GFP+-cells/confluence ∙ 1000 | Mean NFκB response ([2]; 1 µM, 4,5 h): 3728.04 GFP+-cells/confluence ∙ 1000 | Mean NFκB response ([2]; 1 µM, 7,5 h): 7006.53 GFP+-cells/confluence ∙ 1000 | Mean NFκB response ([2]; 1 µM, 10,5 h): 14006.47 GFP+-cells/confluence ∙ 1000 | Mean NFκB response ([2]; 1 µM, 13,5 h): 19614.51 GFP+-cells/confluence ∙ 1000 | Mean NFκB response ([2]; 1 µM, 16,6 h): 24279.62 GFP+-cells/confluence ∙ 1000 | Mean NFκB response ([2]; 1 µM, 19,5 h): 27366.03 GFP+-cells/confluence ∙ 1000 | Mean NFκB response ([2]; 1 µM, 22,5 h): 29896.67 GFP+-cells/confluence ∙ 1000 | Mean NFκB response ([2]; 1 µM, 3 h): 3180.38 GFP+-cells/confluence ∙ 1000 | Mean NFκB response ([2]; 1 µM, 6 h): 4651.42 GFP+-cells/confluence ∙ 1000 | Mean NFκB response ([2]; 1 µM, 9 h): 10914.09 GFP+-cells/confluence ∙ 1000 | Mean NFκB response ([2]; 1 µM, 12 h): 17161.43 GFP+-cells/confluence ∙ 1000 | Mean NFκB response ([2]; 1 µM, 15 h): 22438.14 GFP+-cells/confluence ∙ 1000 | Mean NFκB response ([2]; 1 µM, 18 h): 25981.67 GFP+-cells/confluence ∙ 1000 | Mean NFκB response ([2]; 1 µM, 21 h): 28773.18 GFP+-cells/confluence ∙ 1000 | Mean NFκB response ([2]; 1 µM, 24 h): 30941.17 GFP+-cells/confluence ∙ 1000 | activity at 1 µM [3]: 80% | EC50 (NR3C2 (MR)): 0.34 ± 0.04 nM | Metabolic activity [MA] (HEK293T cells [4]): 1.07 (2×) and 1.02 and 0.98 and 1.08 and 0.99 (2×) and 0.93 | Growth rate [GR] (HEK293T cells [5]): 0.87 and 0.57 and 0.92 and 1.28 and 0.95 and 0.82 and 0.93 and 0.54 and 0.81 and -0.31 | Apoptosis induction [AI] (HEK293T cells [6]): 0.40 and 0.56 and 0.73 and 0.75 and 0.46 and 0.86

From article PMC11790914, “Chemogenomics for steroid hormone receptors (NR3)” (Communications Chemistry, 2025)
